{
  "source": "patent US8975241B2",
  "about": "“Composition for treating and preventing obesity including high water-soluble 2-hydroxypropyl-betacyclodextrin as effective component” (Song Ho Biomed Co., Ltd., priority 2009, dated 2015)",
  "type_in_all_cases": "in vivo",
  "key": {"normal mouse (ICR)": {"test_system": "normal mouse (ICR)", "assay": "Oral maltose tolerance test", "settings": "for Rate of Suppression (%): vs control group", "procedure": "An oral maltose tolerance test system is to predict whether or not a sample has an effect on suppressing a sharp increase of blood sugar induced by intaking maltose after an oral-administration of the sample to a mouse.\nA normal mouse [ICR, 6W, Coretech Inc., Korea] was accommodated for 1 week, and then approximately 18˜20 g female with 7 age of the week mouse was used. 6 mice were assigned for one experimental group and starved for 16 hours to use. HPBCD was dissolved in sterilized distilled water to be 20% (W/V) concentration, and then oral-administered in 0.2 mL per 20 g body weight of a mouse. And then, the maltose dissolved in physiological saline was oral-administered to mice in a liquid amount of 10 ml/kg to inject 2 g/kg after 15, 30, 60, and 90 minutes, respectively. The levels of blood sugars were measured just before administering maltose (0 hour), and at 15, 60, and 120 minutes after administering maltose. Blood for measuring blood sugar was collected from orbital venous of the mouse using a capillary tube. The blood sugar in the collected blood was measured using a measuring instrument, […] ALPHA (Boehringer mannheim Co.). The same amount of sterilized distilled water was administered for the control group."}, "high fat diet-mouse": {"test_system": "high fat diet-mouse", "assay": "Change in body weight by oral administration in high fat diet-mouse", "procedure": "Male C57BL/6J mice (Five age of the week, KRIBB, Korea) were accommodated for 1 week. And then, the weights of the animals were equally divided into 5 animals as one group. While a high fat diet (60% fat kcal) was provided, sterilized distilled water and HPBCDs with 10, 20, and 40% (W/V) were orally administered at three times (Morning, Afternoon, Evening) a day for 5 days in 0.2 ml per 20 g body weight of a mouse at the same time. A change in body weight was measured to all of the animals during the test at one time per day; the fixed amount of feeds was provided at the day of measuring body weight, and then an average amount of intake per an animal (g/mouse/day) was calculated by measuring a residual amount of feeds at the next day.\nA body weight was measured by using the same conditions as the above <Example 3>, except that BCDs with 10 and 20% (W/V) concentrations were used instead of HPBCDs with 10, 20, and 40% (W/V) concentrations.\nA change in body weight was measured during the test using α-CD instead of HPBCD in the same method as the above <Example 3>."}, "[1]": {"test_system": "mouse model with obesity caused by a high fat diet", "assay": "Amount of feed intake by autonomically drinking in mouse model with obesity caused by high fat diet", "settings": "for Amount of Feed Intake: per group", "procedure": "Male C57BL/6J mice (Five age of the week, KRIBB, Korea) were accommodated for 1 week, and then were induced with obesity by giving a high fat diet (60% fat kcal, Research Diets) for 15 days. The weights of the animals that were induced with obesity were equally divided into 3 animals as one group. And then, the solvent-control group drank sterilized distilled water, autonomically. Hydroxypropyl-β-cyclodextrin (HPBCD) was dissolved in sterilized distilled water to be 10, 15, and 20% (W/V) concentrations for drinking autonomically. A change in body weight was daily measured to all of animals during the test; the fixed amount of feeds was provided at the day of measuring body weight, and then an amount of intake per a group (g/day) was calculated by measuring a residual amount of feeds at the next day."}, "[2]": {"settings": "20% (W/V) oral (−)15 min. before maltose 2 g/kg"}, "[3]": {"settings": "20% (W/V) oral (−)30 min. before maltose 2 g/kg"}, "[4]": {"settings": "20% (W/V) oral (−)60 min. before maltose 2 g/kg"}, "[5]": {"settings": "20% (W/V) oral (−)90 min. before maltose 2 g/kg"}},
  "data": [
    {"substance": "2-hydroxypropyl-β-cyclodextrin [HPBCD]", "values": [
      {"measurement": "Increasing Amount of Blood Sugar (15 min.~0 hour)", "setting": "normal mouse (ICR); [2]", "value": 189.7, "unit": "mg/dL"},
      {"measurement": "Level of Blood Sugar Before and After Administration of Maltose (mg/dl), 0 hour", "setting": "normal mouse (ICR); [2]", "value": 83.2, "unit": "mg/dL"},
      {"measurement": "Level of Blood Sugar Before and After Administration of Maltose (mg/dl), 15 min.", "setting": "normal mouse (ICR); [2]", "value": 272.8, "unit": "mg/dL"},
      {"measurement": "Rate of Suppression (%)", "setting": "normal mouse (ICR); [2]", "value": 38.6, "unit": "%"},
      {"measurement": "Increasing Amount of Blood Sugar (15 min.~0 hour)", "setting": "normal mouse (ICR); [3]", "value": 164.8, "unit": "mg/dL"},
      {"measurement": "Level of Blood Sugar Before and After Administration of Maltose (mg/dl), 0 hour", "setting": "normal mouse (ICR); [3]", "value": 87.2, "unit": "mg/dL"},
      {"measurement": "Level of Blood Sugar Before and After Administration of Maltose (mg/dl), 15 min.", "setting": "normal mouse (ICR); [3]", "value": 252.0, "unit": "mg/dL"},
      {"measurement": "Rate of Suppression (%)", "setting": "normal mouse (ICR); [3]", "value": 46.7, "unit": "%"},
      {"measurement": "Increasing Amount of Blood Sugar (15 min.~0 hour)", "setting": "normal mouse (ICR); [4]", "value": 171.3, "unit": "mg/dL"},
      {"measurement": "Level of Blood Sugar Before and After Administration of Maltose (mg/dl), 0 hour", "setting": "normal mouse (ICR); [4]", "value": 86.2, "unit": "mg/dL"},
      {"measurement": "Level of Blood Sugar Before and After Administration of Maltose (mg/dl), 15 min.", "setting": "normal mouse (ICR); [4]", "value": 257.5, "unit": "mg/dL"},
      {"measurement": "Rate of Suppression (%)", "setting": "normal mouse (ICR); [4]", "value": 44.6, "unit": "%"},
      {"measurement": "Increasing Amount of Blood Sugar (15 min.~0 hour)", "setting": "normal mouse (ICR); [5]", "value": 186.2, "unit": "mg/dL"},
      {"measurement": "Level of Blood Sugar Before and After Administration of Maltose (mg/dl), 0 hour", "setting": "normal mouse (ICR); [5]", "value": 77.7, "unit": "mg/dL"},
      {"measurement": "Level of Blood Sugar Before and After Administration of Maltose (mg/dl), 15 min.", "setting": "normal mouse (ICR); [5]", "value": 264.2, "unit": "mg/dL"},
      {"measurement": "Rate of Suppression (%)", "setting": "normal mouse (ICR); [5]", "value": 39.6, "unit": "%"},
      {"measurement": "blood sugar caused by intaking maltose suppressed as compared with the control group", "setting": "normal mouse (ICR); oral, all pre-treatment times", "value": "38˜47%"},
      {"measurement": "Body weight as percent of initial body weight", "setting": "high fat diet-mouse; 10% (w/v) oral three times a day, 0 Day", "value": "100.0 ± 0.0", "unit": "%"},
      {"measurement": "Body weight as percent of initial body weight", "setting": "high fat diet-mouse; 10% (w/v) oral three times a day, 1 Day", "value": "99.3 ± 0.9", "unit": "%"},
      {"measurement": "Body weight as percent of initial body weight", "setting": "high fat diet-mouse; 10% (w/v) oral three times a day, 2 Day", "value": "98.5 ± 1.3", "unit": "%"},
      {"measurement": "Body weight as percent of initial body weight", "setting": "high fat diet-mouse; 10% (w/v) oral three times a day, 3 Day", "value": "98.4 ± 1.2", "unit": "%"},
      {"measurement": "Body weight as percent of initial body weight", "setting": "high fat diet-mouse; 10% (w/v) oral three times a day, 4 Day", "value": "98.3 ± 1.2", "unit": "%"},
      {"measurement": "Body weight as percent of initial body weight", "setting": "high fat diet-mouse; 10% (w/v) oral three times a day, 5 Day", "value": "98.7 ± 2.0", "unit": "%"},
      {"measurement": "body weight as compared with the control group", "setting": "high fat diet-mouse; 10, 20, 40% (W/V) oral", "value": "decreased depending on the concentrations"},
      {"measurement": "body weight as compared with the initial body weight", "setting": "high fat diet-mouse; 10, 20, 40% (W/V) oral", "value": "significantly decreased"},
      {"measurement": "Body weight as percent of initial body weight", "setting": "high fat diet-mouse; 20% (w/v) oral three times a day, 0 Day", "value": "100.0 ± 0.0", "unit": "%"},
      {"measurement": "Body weight as percent of initial body weight", "setting": "high fat diet-mouse; 20% (w/v) oral three times a day, 1 Day", "value": "97.1 ± 1.0", "unit": "%"},
      {"measurement": "Body weight as percent of initial body weight", "setting": "high fat diet-mouse; 20% (w/v) oral three times a day, 2 Day", "value": "95.6 ± 1.1", "unit": "%"},
      {"measurement": "Body weight as percent of initial body weight", "setting": "high fat diet-mouse; 20% (w/v) oral three times a day, 3 Day", "value": "95.8 ± 1.3", "unit": "%"},
      {"measurement": "Body weight as percent of initial body weight", "setting": "high fat diet-mouse; 20% (w/v) oral three times a day, 4 Day", "value": "96.6 ± 1.0", "unit": "%"},
      {"measurement": "Body weight as percent of initial body weight", "setting": "high fat diet-mouse; 20% (w/v) oral three times a day, 5 Day", "value": "95.7 ± 1.5", "unit": "%"},
      {"measurement": "Body weight as percent of initial body weight", "setting": "high fat diet-mouse; 40% (w/v) oral three times a day, 0 Day", "value": "100.0 ± 0.0", "unit": "%"},
      {"measurement": "Body weight as percent of initial body weight", "setting": "high fat diet-mouse; 40% (w/v) oral three times a day, 1 Day", "value": "95.0 ± 2.2", "unit": "%"},
      {"measurement": "Body weight as percent of initial body weight", "setting": "high fat diet-mouse; 40% (w/v) oral three times a day, 2 Day", "value": "93.1 ± 3.4", "unit": "%"},
      {"measurement": "Body weight as percent of initial body weight", "setting": "high fat diet-mouse; 40% (w/v) oral three times a day, 3 Day", "value": "93.5 ± 3.4", "unit": "%"},
      {"measurement": "Body weight as percent of initial body weight", "setting": "high fat diet-mouse; 40% (w/v) oral three times a day, 4 Day", "value": "94.3 ± 2.9", "unit": "%"},
      {"measurement": "Body weight as percent of initial body weight", "setting": "high fat diet-mouse; 40% (w/v) oral three times a day, 5 Day", "value": "94.1 ± 1.9", "unit": "%"},
      {"measurement": "Amount of Feed Intake", "setting": "[1]; 10% (w/v) in drinking water, 1 Day", "value": 3.9, "unit": "g/day"},
      {"measurement": "Amount of Feed Intake", "setting": "[1]; 10% (w/v) in drinking water, 2 Day", "value": 3.9, "unit": "g/day"},
      {"measurement": "Amount of Feed Intake", "setting": "[1]; 10% (w/v) in drinking water, 3 Day", "value": 2.7, "unit": "g/day"},
      {"measurement": "appetite / dietary intake", "setting": "[1]; 10, 15, 20% (W/V) autonomically drinking", "value": "effect on suppressing appetite"},
      {"measurement": "Amount of Feed Intake", "setting": "[1]; 15% (w/v) in drinking water, 1 Day", "value": 4.1, "unit": "g/day"},
      {"measurement": "Amount of Feed Intake", "setting": "[1]; 15% (w/v) in drinking water, 2 Day", "value": 4.5, "unit": "g/day"},
      {"measurement": "Amount of Feed Intake", "setting": "[1]; 15% (w/v) in drinking water, 3 Day", "value": 4.0, "unit": "g/day"},
      {"measurement": "Amount of Feed Intake", "setting": "[1]; 20% (w/v) in drinking water, 1 Day", "value": 4.2, "unit": "g/day"},
      {"measurement": "Amount of Feed Intake", "setting": "[1]; 20% (w/v) in drinking water, 2 Day", "value": 4.2, "unit": "g/day"},
      {"measurement": "Amount of Feed Intake", "setting": "[1]; 20% (w/v) in drinking water, 3 Day", "value": 2.6, "unit": "g/day"}
    ]}
  ]
}
